Assay results from patent US12448389B2, “BRM targeting compounds and associated methods of use” (Prelude Therapeutics Incorporated, priority 2020, dated 2025).

Legend:
[1] = molecular target: T1, SMARCA2-HiBiT (Homo sapiens, UniProt P51531); assay: SMARCA2 HiBiT degradation assay in HeLa cells; format: cell-based; details: 18 hours incubation; for DC50: read-out: HeLa_HiBit-SM2 DC50; for Dmax: HeLa, read-out: HeLa-HiBit-SM2 Dmax (%)
T1 construct: SMARCA2-HiBiT knock-in Hela monoclonal cell (CS302366); host or cells: HeLa monoclonal knock-in line (CRISPR HiBiT knock-in at the endogenous locus, heterozygous)
T1 sequence (P51531 whole entry): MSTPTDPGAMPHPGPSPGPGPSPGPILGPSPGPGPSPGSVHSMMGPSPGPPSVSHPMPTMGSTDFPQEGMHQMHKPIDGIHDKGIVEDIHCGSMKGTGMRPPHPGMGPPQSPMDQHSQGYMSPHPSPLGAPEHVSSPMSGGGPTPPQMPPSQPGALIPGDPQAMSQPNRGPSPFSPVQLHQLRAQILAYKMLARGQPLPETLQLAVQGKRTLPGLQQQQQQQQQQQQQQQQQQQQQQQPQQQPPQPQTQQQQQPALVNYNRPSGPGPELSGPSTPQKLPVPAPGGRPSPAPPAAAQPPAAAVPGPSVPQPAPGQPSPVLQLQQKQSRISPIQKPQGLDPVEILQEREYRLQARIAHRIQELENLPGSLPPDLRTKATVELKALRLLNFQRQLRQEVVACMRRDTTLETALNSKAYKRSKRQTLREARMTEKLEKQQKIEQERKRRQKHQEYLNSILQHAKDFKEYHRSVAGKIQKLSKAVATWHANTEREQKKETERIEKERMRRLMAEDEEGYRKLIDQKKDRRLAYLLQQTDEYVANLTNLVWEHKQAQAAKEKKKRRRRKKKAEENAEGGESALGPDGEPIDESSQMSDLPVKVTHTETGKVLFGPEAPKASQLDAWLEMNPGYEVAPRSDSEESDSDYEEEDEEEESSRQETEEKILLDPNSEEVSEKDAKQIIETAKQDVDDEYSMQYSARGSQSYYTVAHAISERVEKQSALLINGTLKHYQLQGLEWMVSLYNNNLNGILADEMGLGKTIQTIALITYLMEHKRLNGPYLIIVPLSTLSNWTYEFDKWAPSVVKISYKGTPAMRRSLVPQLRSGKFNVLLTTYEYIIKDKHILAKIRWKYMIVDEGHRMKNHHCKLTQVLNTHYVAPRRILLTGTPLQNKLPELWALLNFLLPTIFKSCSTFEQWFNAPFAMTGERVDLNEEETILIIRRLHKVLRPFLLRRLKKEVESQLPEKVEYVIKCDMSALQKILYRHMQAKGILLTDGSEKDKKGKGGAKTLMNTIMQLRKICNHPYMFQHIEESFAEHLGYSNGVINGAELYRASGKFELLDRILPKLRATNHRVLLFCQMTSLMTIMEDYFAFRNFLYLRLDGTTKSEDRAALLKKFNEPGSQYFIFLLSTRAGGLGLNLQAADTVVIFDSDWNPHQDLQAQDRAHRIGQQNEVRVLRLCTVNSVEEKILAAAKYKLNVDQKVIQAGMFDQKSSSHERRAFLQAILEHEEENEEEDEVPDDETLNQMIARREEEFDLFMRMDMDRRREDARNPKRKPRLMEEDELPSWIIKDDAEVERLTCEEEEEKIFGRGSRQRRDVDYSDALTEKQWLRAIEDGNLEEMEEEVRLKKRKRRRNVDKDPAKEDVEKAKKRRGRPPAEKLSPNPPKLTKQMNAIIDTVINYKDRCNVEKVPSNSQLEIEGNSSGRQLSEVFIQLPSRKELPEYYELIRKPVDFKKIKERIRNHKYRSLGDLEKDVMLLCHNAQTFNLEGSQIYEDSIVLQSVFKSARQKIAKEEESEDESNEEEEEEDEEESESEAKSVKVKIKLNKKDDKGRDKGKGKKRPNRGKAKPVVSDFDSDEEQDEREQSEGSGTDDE
How it was run: (§1)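 HeLa monoclonal lines with heterozygous HiBiT knock-in were seeded at 2500 cells/well in EMEM with 10% FBS and treated with compound for 18 h at 37 °C. Remaining tagged protein was measured by Nano-Glo HiBiT lytic luminescence after 30–60 min at RT, and values came from curve fitting.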

[2] = molecular target: T2, SMARCA4-HiBiT (Homo sapiens, UniProt P51532); assay: SMARCA4 HiBiT degradation assay in HeLa cells; format: cell-based; details: 18 hours incubation; for DC50: read-out: HeLa-HiBit-SM4 DC50; for Dmax: HeLa, read-out: HeLa-HiBit-SM4 Dmax (%)
T2 construct: SMARCA4-HiBiT knock-in Hela monoclonal cell (CS3023226); host or cells: HeLa monoclonal knock-in line (CRISPR HiBiT knock-in at the endogenous locus, heterozygous)
T2 sequence (P51532 whole entry): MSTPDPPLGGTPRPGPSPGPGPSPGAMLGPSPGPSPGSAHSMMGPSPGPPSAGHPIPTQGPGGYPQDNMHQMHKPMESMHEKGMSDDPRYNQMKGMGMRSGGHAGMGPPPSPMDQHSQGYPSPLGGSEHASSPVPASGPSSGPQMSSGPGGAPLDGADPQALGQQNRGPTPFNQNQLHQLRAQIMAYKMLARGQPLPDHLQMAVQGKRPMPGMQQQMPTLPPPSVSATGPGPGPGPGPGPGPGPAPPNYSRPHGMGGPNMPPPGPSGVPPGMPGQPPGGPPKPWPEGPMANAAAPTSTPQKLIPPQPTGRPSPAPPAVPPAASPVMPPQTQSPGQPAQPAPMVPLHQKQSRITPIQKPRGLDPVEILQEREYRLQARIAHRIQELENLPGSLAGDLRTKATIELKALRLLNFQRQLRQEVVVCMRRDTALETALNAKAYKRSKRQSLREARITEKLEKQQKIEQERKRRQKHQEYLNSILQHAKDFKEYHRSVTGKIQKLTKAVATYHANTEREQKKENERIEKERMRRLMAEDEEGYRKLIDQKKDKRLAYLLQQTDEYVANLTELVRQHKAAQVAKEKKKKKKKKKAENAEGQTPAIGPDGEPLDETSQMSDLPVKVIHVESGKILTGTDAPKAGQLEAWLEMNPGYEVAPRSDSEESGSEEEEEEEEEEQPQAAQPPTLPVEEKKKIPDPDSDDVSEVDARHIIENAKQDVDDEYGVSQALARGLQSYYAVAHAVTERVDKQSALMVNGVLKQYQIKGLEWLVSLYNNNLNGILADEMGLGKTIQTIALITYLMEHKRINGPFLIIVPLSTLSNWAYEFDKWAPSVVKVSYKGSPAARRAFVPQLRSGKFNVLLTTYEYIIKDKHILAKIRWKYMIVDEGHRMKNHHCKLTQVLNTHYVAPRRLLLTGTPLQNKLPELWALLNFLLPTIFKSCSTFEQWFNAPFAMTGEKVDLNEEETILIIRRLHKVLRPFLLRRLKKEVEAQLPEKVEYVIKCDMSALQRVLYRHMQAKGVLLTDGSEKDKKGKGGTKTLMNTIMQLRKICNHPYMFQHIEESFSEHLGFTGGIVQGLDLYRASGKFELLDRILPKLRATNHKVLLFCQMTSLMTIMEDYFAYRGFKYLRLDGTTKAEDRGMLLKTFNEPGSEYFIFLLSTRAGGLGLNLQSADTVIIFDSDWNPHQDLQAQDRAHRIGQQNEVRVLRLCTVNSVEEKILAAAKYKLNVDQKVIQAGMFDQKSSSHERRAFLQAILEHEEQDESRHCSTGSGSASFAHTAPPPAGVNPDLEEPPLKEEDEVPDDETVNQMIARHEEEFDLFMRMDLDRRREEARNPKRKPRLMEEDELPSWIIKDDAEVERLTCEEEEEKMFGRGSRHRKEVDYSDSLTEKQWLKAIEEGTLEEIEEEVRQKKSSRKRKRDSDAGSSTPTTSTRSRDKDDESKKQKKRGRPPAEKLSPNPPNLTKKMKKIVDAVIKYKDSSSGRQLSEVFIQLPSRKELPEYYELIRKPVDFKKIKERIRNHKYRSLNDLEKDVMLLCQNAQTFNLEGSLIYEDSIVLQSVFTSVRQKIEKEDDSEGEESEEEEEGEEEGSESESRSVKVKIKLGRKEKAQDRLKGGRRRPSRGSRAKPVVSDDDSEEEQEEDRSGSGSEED
How it was run: as §1

With `CC1CN(c2ccc3c(c2)C(=O)N(C2CCC(=O)NC2=O)C3=O)CCC1CN1CCC(CN2CCN3c4cc(-c5ccccc5O)nnc4NC[C@H]3C2)CC1` (stereo partly drawn) [Example 170, 2-(2,6-dioxopiperidin-3-yl)-5-[4-[[4-[[(10S)-4-(2-hydroxyphenyl)-1,5,6,8,12-pentazatricyclo[8.4.0.02,7]tetradeca-2(7),3,5-trien-12-yl]methyl]piperidin-1-yl]methyl]-3-methylpiperidin-1-yl]isoindole-1,3-dione] the DC50 [1] was < 0.01 µM, the Dmax [1] was > 85% and the DC50 [2] was < 0.01 µM. For the same compound, the Dmax [2] was > 85%.
`C[C@@H]1C[C@H](CN2C[C@@H]3[C@H](C2)[C@H]3CN2CCN3c4cc(-c5ccccc5O)nnc4NC[C@H]3C2)CCN1c1ccc2c(c1)C(=O)N(C1CCC(=O)NC1=O)C2=O` (stereo partly drawn) [Example 183, 2-(2,6-dioxopiperidin-3-yl)-5-[(2R,4R)-4-[[(1S,5R)-6-[[(10S)-4-(2-hydroxyphenyl)-1,5,6,8,12-pentazatricyclo[8.4.0.02,7]tetradeca-2,4,6-trien-12-yl]methyl]-3-azabicyclo[3.1.0]hexan-3-yl]methyl]-2-methylpiperidin-1-yl] isoindole-1,3-dione] was tested, and the DC50 [1] was < 0.01 µM, the Dmax [1] was > 85% and the DC50 [2] was < 0.01 µM. It also gave a Dmax [2] of 75 to 85%.
`O=C1CCC(N2C(=O)c3ccc(N4CCC(CN5CCC(NC(=O)N6CCN7c8cc(-c9ccccc9O)nnc8NC[C@H]7C6)CC5)CC4)cc3C2=O)C(=O)N1` (stereo partly drawn) [Example 80, (6aS)-N-(1-((1-(2-(2,6-dioxopiperidin-3-yl)-1,3-dioxoisoindolin-5-yl)piperidin-4-yl)methyl)piperidin-4-yl)-2-(2-hydroxyphenyl)-5,6,6a,7,9,10-hexahydro-8H-pyrazino[1′,2′:4,5]pyrazino[2,3-c]pyridazine-8-carboxamide] was tested, and the DC50 [1] was < 0.01 µM, the Dmax [1] was > 85% and the DC50 [2] was < 0.01 µM. For the same compound, the Dmax [2] was > 85%.
`O=C1CCC(N2Cc3ccc(N4CCC(CN5C[C@@H]6[C@H](C5)[C@H]6CN5CCN6c7cc(-c8ccccc8O)nnc7NC[C@H]6C5)CC4)cc3C2=O)C(=O)N1` (stereo partly drawn) [Example 232, 3-(6-(4-(((1R,5S,6r)-6-(((S)-2-(2-hydroxyphenyl)-5,6,6a,7,9,10-hexahydro-8H-pyrazino[1′,2′:4,5]pyrazino[2,3-c]pyridazin-8-yl)methyl)-3-azabicyclo[3.1.0]hexan-3-yl)methyl)piperidin-1-yl)-1-oxoisoindolin-2-yl)piperidine-2,6-dione] was tested, and the DC50 [1] was < 0.01 µM, the Dmax [1] was > 85% and the DC50 [2] was < 0.01 µM. For the same compound, the Dmax [2] was > 85%.
For `O=C1CCC(N2C(=O)c3ccc(N4CC(CCN5CCC(CN6CCN7c8cc(-c9ccccc9O)nnc8NC[C@H]7C6)CC5)C4)cc3C2=O)C(=O)N1` (stereo partly drawn) [Example 275, 2-(2,6-dioxopiperidin-3-yl)-5-(3-(2-(4-(((S)-2-(2-hydroxyphenyl)-5,6,6a,7,9,10-hexahydro-8H-pyrazino[1′,2′:4,5]pyrazino[2,3-c]pyridazin-8-yl)methyl)piperidin-1-yl)ethyl)azetidin-1-yl)isoindoline-1,3-dione], the DC50 [1] was < 0.01 µM, the Dmax [1] was 75 to 85% and the DC50 [2] was < 0.01 µM. For the same compound, the Dmax [2] was 75 to 85%.
With `O=C1CCC(N2C(=O)c3cc(F)c(N4CCC(CN5CCC(CN6CCN7c8cc(-c9ccccc9O)nnc8NC[C@H]7C6)CC5)CC4)cc3C2=O)C(=O)N1` (stereo partly drawn) [Example 164, 2-(2,6-dioxopiperidin-3-yl)-5-fluoro-6-[4-[[4-[[(10S)-4-(2-hydroxyphenyl)-1,5,6,8,12-pentazatricyclo[8.4.0.02,7]tetradeca-2,4,6-trien-12-yl]methyl]piperidin-1-yl]methyl]piperidin-1-yl]isoindole-1,3-dione] the DC50 [1] was < 0.01 µM, the Dmax [1] was > 85% and the DC50 [2] was < 0.01 µM. It also gave a Dmax [2] of 75 to 85%.
For `O=C1CCC(N2Cc3ccc(N4CCC(CN5CCN(C(=O)N6CCN7c8cc(-c9ccccc9O)nnc8NC[C@H]7C6)C(CO)C5)CC4)cc3C2=O)C(=O)N1` (stereo partly drawn) [Example 110, 3-(6-(4-((3-(hydroxymethyl)-4-((S)-2-(2-hydroxyphenyl)-6,6a,7,8,9,10-hexahydro-5H-pyrazino[1′,2′:4,5]pyrazino[2,3-c]pyridazine-8-carbonyl)piperazin-1-yl)methyl)piperidin-1-yl)-1-oxoisoindolin-2-yl)piperidine-2,6-dione], the DC50 [1] was < 0.01 µM, the Dmax [1] was > 85% and the DC50 [2] was 0.01 to 0.1 µM. For the same compound, the Dmax [2] was 75 to 85%.
In the case of `O=C1CCC(N2C(=O)c3ccc(N4CCC(CN5CCC(O)(CN6CCN7c8cc(-c9ccccc9O)nnc8NC[C@H]7C6)CC5)CC4)cc3C2=O)C(=O)N1` (stereo partly drawn) [Example 38, 2-(2,6-dioxopiperidin-3-yl)-5-(4-((4-hydroxy-4-(((S)-2-(2-hydroxyphenyl)-5,6,6a,7,9,10-hexahydro-8H-pyrazino[1′,2′:4,5]pyrazino[2,3-c]pyridazin-8-yl)methyl)piperidin-l-yl)methyl)piperidin-1-yl)isoindoline-1,3-dione], the DC50 [1] is reported as < 0.01 µM, the Dmax [1] is reported as > 85% and the DC50 [2] is reported as < 0.01 µM. The Dmax [2] was > 85%.
`O=C1CCC(N2Cc3cc(C4CCN(C5CCCN(CCCN6CCN7c8cc(-c9ccccc9O)nnc8NC[C@H]7C6)C5)CC4)ccc3C2=O)C(=O)N1` (stereo partly drawn) [Example 210, 3-(5-(1′-(3-((S)-2-(2-hydroxyphenyl)-5,6,6a,7,9,10-hexahydro-8H-pyrazino[1′,2′:4,5]pyrazino[2,3-c]pyridazin-8-yl)propyl)-[1,3′-bipiperidin]-4-yl)-1-oxoisoindolin-2-yl)piperidine-2,6-dione] was tested, and the DC50 [1] was < 0.01 µM, the Dmax [1] was > 85% and the DC50 [2] was < 0.01 µM. The Dmax [2] was 75 to 85%.
With `O=C1CCC(N2C(=O)c3ccc(N4CCN(CC5CCN(C(=O)N6CCN7c8cc(-c9ccccc9O)nnc8NC[C@H]7C6)CC5)CC4)cc3C2=O)C(=O)N1` (stereo partly drawn) [Example 142, 2-(2,6-dioxopiperidin-3-yl)-5-(4-((1-((S)-2-(2-hydroxyphenyl)-6,6a,7,8,9,10-hexahydro-5H-pyrazino[1′,2′:4,5]pyrazino[2,3-c]pyridazine-8-carbonyl)piperidin-4-yl)methyl)piperazin-1-yl)isoindoline-1,3-dione] the DC50 [1] was < 0.01 µM, the Dmax [1] was 75 to 85% and the DC50 [2] was 0.01 to 0.1 µM. It also gave a Dmax [2] of 50 to 75%.
For `O=C1CCC(N2Cc3ccc(N4CCC(CN5CCN(C(=O)N6CCN7c8cc(-c9ccccc9O)nnc8NC[C@H]7C6)CC5)CC4)cc3C2=O)C(=O)N1` (stereo partly drawn) [Example 95, 3-(6-(4-((4-((S)-2-(2-hydroxyphenyl)-6,6a,7,8,9,10-hexahydro-5H-pyrazino [1′,2′:4,5]pyrazino[2,3-c]pyridazine-8-carbonyl)piperazin-1-yl)methyl)piperidin-1-yl)-1-oxoisoindolin-2-yl)piperidine-2,6-dione], the DC50 [1] was < 0.01 µM, the Dmax [1] was > 85% and the DC50 [2] was < 0.01 µM. For the same compound, the Dmax [2] was 75 to 85%.
In the case of `O=C1CCC(NC(=O)c2ccc(N3CCC(CN4CCC(N5CCN6c7cc(-c8ccccc8O)nnc7NC[C@H]6C5)CC4)CC3)cn2)C(=O)N1` (stereo partly drawn) [Example 24, N-(2,6-dioxopiperidin-3-yl)-5-(4-((4-((S)-2-(2-hydroxyphenyl)-5,6,6a,7,9,10-hexahydro-8H-pyrazino[1′,2′:4,5]pyrazino[2,3-c]pyridazin-8-yl)piperidin-1-yl)methyl)piperidin-1-yl)picolinamide], the DC50 [1] is reported as < 0.01 µM, the Dmax [1] is reported as > 85% and the DC50 [2] is reported as < 0.01 µM. For the same compound, the Dmax [2] was 75 to 85%.
